Experimental data: patent US20240285614A1, “PHENOL RIBONUCLEOTIDE REDUCTASE (RNR) INHIBITORS AND USES THEREOF” (Boundless Bio, Inc., priority 2023, published 2024)

Columns and labels:
RNR (RNR1:RNR2 1:1) = target: T1, RNR (RNR1:RNR2 1:1) (Homo sapiens, UniProt P23921+P31350); experiment: RNR enzyme activity, rapid-fire mass spectrometry (RF/MS) assay; assay type: biochemical; details: RNR 50 nM, 1:1 (RNR1:RNR2); CDP 5 μM; ATP 1 mM; 37° C., 45 min; compounds screened up to 50 μM
T1 sequence (P23921 1-792): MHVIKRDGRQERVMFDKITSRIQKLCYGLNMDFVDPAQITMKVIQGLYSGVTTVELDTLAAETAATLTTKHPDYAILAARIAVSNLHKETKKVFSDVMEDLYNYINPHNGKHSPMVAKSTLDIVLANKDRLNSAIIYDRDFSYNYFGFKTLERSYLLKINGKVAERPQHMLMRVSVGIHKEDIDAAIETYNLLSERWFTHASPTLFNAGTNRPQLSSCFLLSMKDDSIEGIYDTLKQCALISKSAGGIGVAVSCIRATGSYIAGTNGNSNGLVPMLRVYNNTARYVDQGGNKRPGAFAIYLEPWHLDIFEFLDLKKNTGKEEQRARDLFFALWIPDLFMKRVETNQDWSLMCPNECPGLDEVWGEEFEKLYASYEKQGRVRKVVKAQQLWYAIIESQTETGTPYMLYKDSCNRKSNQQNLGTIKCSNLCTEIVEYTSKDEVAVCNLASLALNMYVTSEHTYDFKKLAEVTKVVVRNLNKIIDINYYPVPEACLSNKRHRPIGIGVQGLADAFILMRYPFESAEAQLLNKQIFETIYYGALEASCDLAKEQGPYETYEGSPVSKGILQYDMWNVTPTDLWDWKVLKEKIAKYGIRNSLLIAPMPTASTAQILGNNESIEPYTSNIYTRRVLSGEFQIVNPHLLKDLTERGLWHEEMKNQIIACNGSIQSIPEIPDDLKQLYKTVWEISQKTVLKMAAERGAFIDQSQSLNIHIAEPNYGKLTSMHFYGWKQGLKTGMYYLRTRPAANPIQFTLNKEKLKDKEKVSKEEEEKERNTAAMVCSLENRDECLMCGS
T1 sequence (P31350 1-389): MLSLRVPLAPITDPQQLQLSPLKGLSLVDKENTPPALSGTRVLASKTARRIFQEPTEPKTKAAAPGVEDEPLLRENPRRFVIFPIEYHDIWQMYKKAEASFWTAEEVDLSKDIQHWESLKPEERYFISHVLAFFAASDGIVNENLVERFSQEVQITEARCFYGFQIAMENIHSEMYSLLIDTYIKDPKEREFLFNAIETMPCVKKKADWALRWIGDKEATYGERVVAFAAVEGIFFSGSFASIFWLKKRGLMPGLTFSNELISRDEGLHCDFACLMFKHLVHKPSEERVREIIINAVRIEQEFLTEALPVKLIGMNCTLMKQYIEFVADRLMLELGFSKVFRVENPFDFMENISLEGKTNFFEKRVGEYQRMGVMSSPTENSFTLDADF
Description: A rapid-fire mass spectrometry (RF/MS) assay was used to assess RNR enzyme activity using a 384 well plate and a robotic platform.
The plate layout included two validated reference compounds (Triapine (3-AP) and Hydroxyurea (HU)): • A dose response in duplicate, top concentration: 5 μM (3-AP) and 250 μM (HU), semi-log • dilutions. • Spike wells in triplicate randomly spotted at four concentrations: • 250 μM, 100 μM, 30 μM and 2 μM for HU • 5 μM, 2 μM, 0.6 μM and 0.04 μM for 3-AP
First, the multidrop pipes were saturated for 30 minutes with enzymatic solution. Then 30 μL of Stop solution was distributed in column 24. Next, 15 μL of enzyme was distributed in column 1 to 24. Next, a pre-incubation step of 15 minutes at room temperature occurred, followed by distribution of 15 μL of substrate solution (column 1 to 24). Next, the plate was incubated for 45 minutes at 37° C. 30 μL of Stop solution was distributed to columns 1 to 23.
The final parameters for the enzyme reactions were: • Incubation: 37° C., 45 min • [CDP]: 5 μM: [ATP]: 1 mM; [NADPH]: No • [RNR]final: 50 nM with 1:1 (RNR1:RNR2) ratio • Final volume: 30 μL • Stop solution: 6% HCOOH containing 2 μM of 15

[1] = tested on: pCHK1 (S345) in Colo320 DM cells; experiment: Alphalisa assay, detection of pCHK1 (S345) in Colo320 DM cells; assay type: cell-based; details: Homo sapiens, COLO 320DM, compound incubation overnight (approximately 16 hours)
Description: Colo320 DM cells (ATCC #CCL-220, derived from human colorectal adenocarcinoma, Dukes' type C) were seeded on a 96-well, cell culture treated assay plate at a density of 50,000 cells/well in 200 μL of RPMI-1640 media supplemented with 10% Fetal Bovine Serum and incubated at 37° C. overnight. The following day, test compound dilutions were added directly to the plated cells by a Tecan digital dispenser to a final DMSO concentration of <0.5%, and incubated at 37° C. overnight (approximately 16 hours). The following day all cull culture media was removed from the cells. 75 μL of 1× AlphaLisa lysis buffer was added to each well and plates were agitated on a shaker for 30 minutes at room temperature. The lysis of cells and detection of pCHK1 (S345) were performed with regents contained within the AlphaLisa Sure Fire assay kit (Perkin Elmer #ALSU-PCHK1-A) according to the manufacturer's instructions. 10 μL of each lysate was then transferred to a white, 384-well assay plate (Perkin Elmer #6008280), 5 μL of Acceptor mix was then added to each well of lysate in the white, 384-well assay plate and incubated in the dark at room temperature for 60 minutes. 5 μL of Donor mix was then added to each well of the white, 384-well assay plate in subdued light and incubated at room temperature for 60 minutes. Plates were read on an Alpha Technology-compatible plate reader using standard AlphaLisa settings.

Row | SMILES | IC50 (RNR (RNR1:RNR2 1:1)) [nM] | IC50 [1] [µM]
1 | CN(c1ccc(O)cc1)C1CCN(S(=O)(=O)c2ccc3cc[nH]c3c2)C1 (racemic) [compound 20, rac-(R)-4-((1-((1H-indol-6-yl)sulfonyl)pyrrolidin-3-yl)(methyl)amino)phenol] | ≤ 50 | ≤ 1
2 | O=S(=O)(c1cccc2cc[nH]c12)N1CCN(c2ccc(O)cc2)CC1 [compound 5, 4-(4-((1H-indol-7-yl)sulfonyl)piperazin-1-yl)phenol] | 100 to 500 | 1 to 5
3 | O=S(=O)(c1ccc2cc[nH]c2c1)N1C[C@H]2CCC[C@@H](C1)N2c1ccc(O)cc1 [compound 28, 4-((1R,5S)-3-((1H-indol-6-yl)sulfonyl)-3,9-diazabicyclo[3.3.1]nonan-9-yl)phenol] | ≤ 50 | 1 to 5
4 | O=S(=O)(c1ccc2[nH]ccc2c1)N1CCN(c2ccc(O)cc2)CC1 [compound 9, 4-(4-((1H-indol-5-yl)sulfonyl)piperazin-1-yl)phenol] | 100 to 500 | 5 to 10
5 | CN(c1ccc(O)cc1)C1CN(S(=O)(=O)c2ccc3cc[nH]c3c2)C1 [compound 13, 4-((1-((1H-indol-6-yl)sulfonyl)azetidin-3-yl)(methyl)amino)phenol] | ≤ 50 | ≤ 1
6 | CN(C1CN(c2ccc(O)cc2)C1)S(=O)(=O)c1ccc2cc[nH]c2c1 [compound 16, N-(1-(4-hydroxyphenyl)azetidin-3-yl)-N-methyl-1H-indole-6-sulfonamide] | 100 to 500 | 1 to 5
7 | O=S(=O)(c1ccc2cc[nH]c2c1)N1CCCN(c2ccc(O)cc2)CC1 [compound 14, 4-(4-((1H-indol-6-yl)sulfonyl)-1,4-diazepan-1-yl)phenol] | ≤ 50 | 5 to 10
8 | Cn1ccc2ccc(S(=O)(=O)N3CCN(c4ccc(O)cc4)CC3)cc21 [compound 3, 4-(4-((1-methyl-1H-indol-6-yl)sulfonyl)piperazin-1-yl)phenol] | 100 to 500 | 5 to 10
9 | O=S(=O)(c1cccc2[nH]ccc12)N1CCN(c2ccc(O)cc2)CC1 [compound 7, 4-(4-((1H-indol-4-yl)sulfonyl)piperazin-1-yl)phenol] | 50 to 100 | 1 to 5
10 | O=S(=O)(c1ccc2cc[nH]c2c1)N1CC(N(c2ccc(O)cc2)C2CC2)C1 [compound 19, 4-((1-((1H-indol-6-yl)sulfonyl)azetidin-3-yl)(cyclopropyl)amino)phenol] | ≤ 50 | 1 to 5
11 | CN(c1ccc(O)cc1)C1CCN(S(=O)(=O)c2ccc3cc[nH]c3c2)CC1 [compound 15, 4-((1-((1H-indol-6-yl)sulfonyl)piperidin-4-yl)(methyl)amino)phenol] | 50 to 100 | 1 to 5
12 | C[C@@H]1CN(c2ccc(O)cc2)CCN1S(=O)(=O)c1ccc2cc[nH]c2c1 [compound 21, (R)-4-(4-((1H-indol-6-yl)sulfonyl)-3-methylpiperazin-1-yl)phenol] | ≤ 50 | 1 to 5
13 | O=S(=O)(c1ccc2cc[nH]c2c1)N1CC=C(c2ccc(O)cc2)CC1 [compound 8, 4-[1-(1H-indol-6-ylsulfonyl)-3,6-dihydro-2H-pyridin-4-yl]phenol] | – | 1 to 5
14 | O=C1C[C@@H]2CN(S(=O)(=O)c3ccc4cc[nH]c4c3)C[C@H](C1)N2c1ccc(O)cc1 [compound 42, (1R,5S)-3-((1H-indol-6-yl)sulfonyl)-9-(4-hydroxyphenyl)-3,9-diazabicyclo[3.3.1]nonan-7-one] | – | 1 to 5

Now from value to compound:

Row | IC50 (RNR (RNR1:RNR2 1:1)) [nM] | IC50 [1] [µM] | SMILES
15 | ≤ 50 | 1 to 5 | C[C@@H]1CN(S(=O)(=O)c2ccc3cc[nH]c3c2)C[C@H]1N(C)c1ccc(O)cc1 (racemic) [compound 39, rac-4-(((3R,4S)-1-((1H-indol-6-yl)sulfonyl)-4-methylpyrrolidin-3-yl)(methyl)amino)phenol]
16 | – | 1 to 5 | CN(c1ccc(O)cc1)C1CCN(S(=O)(=O)c2cc3[nH]c(Cl)cc3cc2F)C1 (racemic) [compound 32, rac-(R)-4-((1-((2-chloro-5-fluoro-1H-indol-6-yl)sulfonyl)pyrrolidin-3-yl)(methyl)amino)phenol]
17 | ≤ 50 | ≤ 1 | CN(c1ccc(O)cc1)C1CN(S(=O)(=O)c2ccc3[nH]ccc3c2)C1 [compound 27, 4-((1-((1H-indol-5-yl)sulfonyl)azetidin-3-yl)(methyl)amino)phenol]
18 | – | 1 to 5 | C[C@H]1C[C@H](N(C)c2ccc(O)cc2)CN1S(=O)(=O)c1ccc2cc[nH]c2c1 (racemic) [compound 48, rac-4-(((3R,5R)-1-((1H-indol-6-yl)sulfonyl)-5-methylpyrrolidin-3-yl)(methyl)amino)phenol]
19 | – | 1 to 5 | O=S(=O)(c1ccc2cc[nH]c2c1)N1CCC2C1CCCN2c1ccc(O)cc1 (centres unmarked) [compound 49, 4-(1-((1H-indol-6-yl)sulfonyl)octahydro-4H-pyrrolo[3,2-b]pyridin-4-yl)phenol]
20 | 100 to 500 | 10 to 50 | O=S(=O)(c1ccc2cc[nH]c2c1)N1CC[C@H](N(Cc2cccnc2)c2ccc(O)cc2)C1 [compound 50, (S)-4-((1-((1H-indol-6-yl)sulfonyl)pyrrolidin-3-yl)(pyridin-3-ylmethyl)amino)phenol]
21 | 50 to 100 | 1 to 5 | CN(c1ccc(O)cc1)C1CN(S(=O)(=O)c2cccc3[nH]ccc23)C1 [compound 24, 4-((1-((1H-indol-4-yl)sulfonyl)azetidin-3-yl)(methyl)amino)phenol]
22 | ≤ 50 | 5 to 10 | CN(CC1CN(S(=O)(=O)c2ccc3cc[nH]c3c2)C1)c1ccc(O)cc1 [compound 29, 4-(((1-((1H-indol-6-yl)sulfonyl)azetidin-3-yl)methyl)(methyl)amino) phenol]
23 | 50 to 100 | 5 to 10 | CN(CC1CCN1S(=O)(=O)c1ccc2cc[nH]c2c1)c1ccc(O)cc1 (centres unmarked) [compound 45, 4-(((1-((1H-indol-6-yl)sulfonyl)azetidin-2-yl)methyl)(methyl)amino) phenol]
24 | 100 to 500 | 10 to 50 | O=S(=O)(c1cc2ccccc2[nH]1)N1CCC2(CCN(c3ccc(O)cc3)CC2)C1 [compound 47, 4-(2-((1H-indol-2-yl)sulfonyl)-2,8-diazaspiro[4.5]decan-8-yl)phenol]
25 | – | 1 to 5 | O=S(=O)(c1ccc2cc[nH]c2c1)N1CCN(c2ccc(O)cc2)CC12CC2 [compound 33, 4-(4-((1H-indol-6-yl)sulfonyl)-4,7-diazaspiro[2.5]octan-7-yl)phenol]
